Measurements reported in ChEMBL document CHEMBL1201862, “PubChem BioAssay data set” (2004).
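Tested at 5 concentrations; 48 h exposure; 96-well plates; endpoints linearly interpolated, else capped at highest concentration. GI50 is the concentration that inhibits growth by half.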 Calls of active or inactive are those of the source. Cut-off read from the data, not from the text of the source: active = GI50 up to about 1.1 µM and inactive = higher.

Assays:
Assay in all cases: NCI anticancer screen, dose series, 48 h
[1] = tested on: SF-539
[2] = tested on: NCI-H23
[3] = tested on: Malme-3M
[4] = tested on: COLO 205
[5] = tested on: SW-620
[6] = tested on: SF-295
[7] = tested on: SK-MEL-28
[8] = tested on: SNB-78
[9] = tested on: DMS-273
[10] = tested on: CAKI-1
[11] = tested on: UACC-62
[12] = tested on: HCC 2998
[13] = tested on: LOX IMVI
[14] = tested on: T47D
[15] = tested on: SK-MEL-5
[16] = tested on: SNB-75
[17] = tested on: RPMI-8226
[18] = tested on: OVCAR-5
[19] = tested on: HOP-18
[20] = tested on: A498
[21] = tested on: CCRF-CEM
[22] = tested on: HCT-15
[23] = tested on: HT-29
[24] = tested on: A549
[25] = tested on: UACC-257
[26] = tested on: MOLT-4
[27] = tested on: HOP-92
[28] = tested on: M14
[29] = tested on: SR
[30] = tested on: IGROV-1
[31] = tested on: KM-20L2
[32] = tested on: EKVX
[33] = tested on: OVCAR-8
[34] = tested on: MDA-N
[35] = tested on: HL-60
[36] = tested on: KM12
[37] = tested on: BT-549
[38] = tested on: OVCAR-4
[39] = tested on: PC-3
[40] = tested on: MDA-MB-435
[41] = tested on: NCI/ADR-RES
[42] = tested on: XF498
[43] = tested on: MDA-MB-231
[44] = tested on: K562
[45] = tested on: SF-268
[46] = tested on: 786-0
[47] = tested on: SNB-19
[48] = tested on: U-251
[49] = tested on: Hs-578T
[50] = tested on: HCT-116
[51] = tested on: OVCAR-3
[52] = tested on: NCI-H522
[53] = tested on: DLD-1
[54] = tested on: HOP-62
[55] = tested on: MCF7
[56] = tested on: TK-10
[57] = tested on: ACHN
[58] = tested on: SN12C
[59] = tested on: RXF 393
[60] = tested on: NCI-H226
[61] = tested on: UO-31
[62] = tested on: NCI-H460
[63] = tested on: SK-MEL-2
[64] = tested on: SK-OV-3
[65] = tested on: DMS-114
[66] = tested on: M19-MEL

For COc1cc([C@H]2c3[nH]c4ccccc4c3C[C@H]3COC(=O)N32)cc(OC)c1O, the GI50 [1] was 0.0396 µM (active), the GI50 [2] was 0.0748 µM (active) and the GI50 [3] was 3.95 µM (inactive). For the same compound, the GI50 [4] was 0.166 µM (active), the GI50 [5] was 0.0268 µM (active) and the GI50 [6] was 0.0189 µM (active). For the same compound, the GI50 [7] was 1.66 µM (inactive), the GI50 [8] was 2.3 µM (inactive) and the GI50 [9] was 0.0163 µM (active). For the same compound, the GI50 [10] was 0.0395 µM (active), the GI50 [11] was 0.0209 µM (active) and the GI50 [12] was 0.143 µM (active). The GI50 [13] was < 0.01 µM (active), the GI50 [14] was 42.4 µM (inactive) and the GI50 [15] was 0.0193 µM (active). For the same compound, the GI50 [16] was 0.0324 µM (active), the GI50 [17] was 0.0404 µM (active) and the GI50 [18] was 13.3 µM (inactive). The GI50 [19] was 64.3 µM (inactive), the GI50 [20] was 0.0509 µM (active) and the GI50 [21] was 0.0209 µM (active). The GI50 [22] was 0.0256 µM, the GI50 [23] was 0.0228 µM (active) and the GI50 [24] was 0.0792 µM (active). The GI50 [25] was > 100 µM (inactive), the GI50 [26] was 0.0488 µM (active) and the GI50 [27] was 2.27 µM (inactive). The GI50 [28] was < 0.0386 µM (active), the GI50 [29] was 0.0132 µM (active) and the GI50 [30] was 0.0502 µM (active). The GI50 [31] was 0.04 µM (active), the GI50 [32] was 0.8 µM (active) and the GI50 [33] was 0.131 µM (active). For the same compound, the GI50 [34] was < 0.01 µM (active), the GI50 [35] was 0.0176 µM (active) and the GI50 [36] was 0.0202 µM (active). For the same compound, the GI50 [37] was 29.2 µM (inactive), the GI50 [38] was 39.3 µM (inactive) and the GI50 [39] was 0.0378 µM (active). The GI50 [40] was < 0.01 µM (active), the GI50 [41] was 0.0667 µM (active) and the GI50 [42] was 0.0671 µM (active). For the same compound, the GI50 [43] was 0.0408 µM (active), the GI50 [44] was 0.0153 µM (active) and the GI50 [45] was 0.0221 µM (active). For the same compound, the GI50 [46] was 0.145 µM (active), the GI50 [47] was 4.9 µM (inactive) and the GI50 [48] was 0.0326 µM (active). The GI50 [49] was 0.0335 µM (active), the GI50 [50] was 0.0344 µM (active) and the GI50 [51] was < 0.01 µM (active). The GI50 [52] was 0.015 µM (active), the GI50 [53] was 0.132 µM (active) and the GI50 [54] was 0.0462 µM (active). The GI50 [55] was < 0.01 µM (active), the GI50 [56] was 0.807 µM (active) and the GI50 [57] was 0.163 µM (active). For the same compound, the GI50 [58] was 2.43 µM (inactive), the GI50 [59] was 0.0405 µM (active) and the GI50 [60] was 0.422 µM (active). The GI50 [61] was 0.246 µM (active) and the GI50 [62] was 0.0312 µM (active).

CC(=O)OC1CCC2(C)C3CCC4(C)C(c5ccc(=O)oc5)CC5OC54C3CCC2(O)C1 (stereo unspecified) was tested, and the GI50 [1] was 0.75 µM (active), the GI50 [2] was 0.649 µM (active) and the GI50 [3] was 0.895 µM (active). The GI50 [4] was 4.28 µM (inactive), the GI50 [5] was 1.21 µM (inactive) and the GI50 [6] was 1.15 µM (inactive). For the same compound, the GI50 [7] was 4.27 µM (inactive), the GI50 [8] was 1.14 µM (inactive) and the GI50 [9] was 0.798 µM (active). The GI50 [10] was 0.738 µM (active), the GI50 [11] was 2.69 µM (inactive) and the GI50 [12] was 2.98 µM (inactive). For the same compound, the GI50 [63] was 4.86 µM (inactive), the GI50 [13] was 1.63 µM (inactive) and the GI50 [64] was 4.49 µM (inactive). The GI50 [15] was 0.714 µM (active), the GI50 [16] was 1.06 µM (active) and the GI50 [17] was 0.869 µM (active). For the same compound, the GI50 [18] was 5.81 µM (inactive), the GI50 [19] was 0.461 µM (active) and the GI50 [20] was 1.55 µM (inactive). For the same compound, the GI50 [21] was 0.631 µM (active), the GI50 [22] was 1.9 µM and the GI50 [23] was 2.19 µM (inactive). The GI50 [24] was 0.495 µM (active), the GI50 [25] was 3.04 µM (inactive) and the GI50 [26] was 0.348 µM (active). For the same compound, the GI50 [27] was 2.45 µM (inactive), the GI50 [30] was 2.61 µM (inactive) and the GI50 [31] was 2.15 µM (inactive). The GI50 [32] was 0.887 µM (active), the GI50 [33] was 1.15 µM (inactive) and the GI50 [35] was 0.522 µM (active). The GI50 [36] was 3.21 µM (inactive), the GI50 [38] was 2.3 µM (inactive) and the GI50 [41] was 1.08 µM (active). For the same compound, the GI50 [65] was 0.109 µM (active), the GI50 [42] was 2.92 µM (inactive) and the GI50 [44] was 0.979 µM (active). The GI50 [45] was 0.621 µM (active), the GI50 [47] was 5.18 µM (inactive) and the GI50 [48] was 2.21 µM (inactive). For the same compound, the GI50 [50] was 0.706 µM (active), the GI50 [51] was 0.59 µM (active) and the GI50 [52] was 0.53 µM (active). For the same compound, the GI50 [53] was 0.521 µM (active), the GI50 [54] was 0.811 µM (active) and the GI50 [55] was 2.31 µM (inactive). For the same compound, the GI50 [58] was 0.617 µM (active), the GI50 [59] was 0.479 µM (active) and the GI50 [60] was 4.72 µM (inactive). For the same compound, the GI50 [61] was 2.49 µM (inactive), the GI50 [66] was 2.21 µM (inactive) and the GI50 [62] was 0.579 µM (active).
